The source of these data is patent US8354436B2 (4SC Discovery GmbH, priority 2011, dated 2013).

pIC50: −log10 of the molar value.

Common to all, as to type: cell-based
For assay [1], the system named is PBMC from healthy human donors. The assay can be described thus: T cell proliferation assay (PHA-stimulated human PBMC, BrdU ELISA). The following applies: PHA-stimulated human PBMC, 48 hours, column D, read-out: IC50 (Tcell proliferation). The method, boiled down:
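Proliferation was quantified by BrdU ELISA 48 hours after starting culture of 1×10⁵ human PBMC per well with test compound and 2 μg/ml phytohaemagglutinin. Cells came from healthy donors via Ficoll separation and were kept in RPMI1640 with 10% dialysed heat-inactivated FCS.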
(In general: Dividing cells build labelled thymidine or BrdU into new DNA.)

For assay [2], the system named is IFN-γ. The assay can be described thus: IFN-γ production by PHA-stimulated human PBMC (OptEIA human IFN-g ELISA). The following applies: PHA-stimulated human PBMC, 48 hours; column C; read-out: IC50 (IFNγ). A digest of the protocol:
(§1)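 Inhibition of PHA-driven (2 μg/ml) cytokine release from human PBMC at 1×10^5 cells/well, 48 h compound exposure. IC50 from semilog titrations.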
(In general: In an ELISA, binding on a coated surface is turned into a signal by an enzyme label.)

In assay [3] the test system is IL-17FF. The assay can be described thus: IL-17FF production by PHA-stimulated human PBMC (human IL-17F ELI-Pair). The following applies: PHA-stimulated human PBMC, 48 hours; column B; read-out: IC50 (IL-17FF). A digest of the protocol:
as §1

As for `COC(=O)c1c(-c2c(F)cccc2Cl)noc1-c1cnn(-c2ccc(C(C)(C)C)cc2)c1C(F)(F)F` [Example I-81, methyl 5-(1-(4-tert-butylphenyl)-5-(trifluoromethyl)-1H-pyrazol-4-yl)-3-(2-chloro-6-fluorophenyl)isoxazole-4-carboxylate], the results for the pIC50 in assay [1], in assay [2] and in assay [3] were 5.00 to 6.00, 6.00 to 7.00 and 5.00 to 6.00, respectively.

With `COC(=O)c1c(-c2c(F)cccc2Cl)noc1-c1cnn(-c2ccccn2)c1C(F)(F)F` [Example I-84, methyl 3-(2-chloro-6-fluorophenyl)-5-(1-(pyridin-2-yl)-5-(trifluoromethyl)-1H-pyrazol-4-yl)isoxazole-4-carboxylate], the pIC50 in assay [1], in assay [2] and in assay [3] was over 8.00 each time.

`COC(=O)c1c(-c2c(F)cccc2Cl)noc1-c1cnn(-c2ccc(S(C)(=O)=O)cc2)c1C(F)(F)F` [Example I-85, methyl 3-(2-chloro-6-fluorophenyl)-5-(1-(4-(methylsulfonyl)phenyl)-5-(trifluoromethyl)-1H-pyrazol-4-yl)isoxazole-4-carboxylate]: the pIC50 in assay [1], in assay [2] and in assay [3] was 5.00 to 6.00 in each case.

Regarding `COC(=O)c1c(-c2c(F)cccc2Cl)noc1-c1cnn(-c2ccccc2F)c1` [Example I-89, Methyl 3-(2-chloro-6-fluorophenyl)-5-[1-(2-fluorophenyl)-1H-pyrazol-4-yl]isoxazole-4-carboxylate], the pIC50 is 6.00 to 7.00 in assay [1], 6.00 to 7.00 in assay [2] and 7.00 to 8.00 in assay [3].

For `CCOC(=O)c1c(-c2ccccc2F)noc1-c1cnn(-c2cccc(F)c2)c1C(F)(F)F` [Example I-90, ethyl 3-(2-fluorophenyl)-5-(1-(3-fluorophenyl)-5-(trifluoromethyl)-1H-pyrazol-4-yl)isoxazole-4-carboxylate], the pIC50 was 6.00 to 7.00 in assay [1], 7.00 to 8.00 in assay [2] and 6.00 to 7.00 in assay [3].

On to `COC(=O)c1c(-c2ccccc2F)noc1-c1cnn(-c2cccc(F)c2)c1C(F)(F)F` [Example I-92, methyl 3-(2-fluorophenyl)-5-(1-(3-fluorophenyl)-5-(trifluoromethyl)-1H-pyrazol-4-yl)isoxazole-4-carboxylate], for which the pIC50 in assay [1], in assay [2] and in assay [3] was 6.00 to 7.00 each time.

`CON(C)C(=O)c1c(-c2ccccc2F)noc1-c1cnn(-c2cccc(F)c2)c1C(F)(F)F` [Example I-94, 3-(2-fluorophenyl)-5-(1-(3-fluorophenyl)-5-(trifluoromethyl)-1H-pyrazol-4-yl)-N-methoxy-N-methylisoxazole-4-carboxamide]: the pIC50 in assay [1], in assay [2] and in assay [3] was 5.00 to 6.00 in each case.

As for `COC(=O)c1c(-c2ccccc2Cl)noc1-c1cnn(-c2cccc(F)c2)c1C(F)(F)F` [Example I-95, methyl 3-(2-chlorophenyl)-5-(1-(3-fluorophenyl)-5-(trifluoromethyl)-1H-pyrazol-4-yl)isoxazole-4-carboxylate], the pIC50 in assay [1], in assay [2] and in assay [3] was over 8.00 each time.

`CNC(=O)c1c(-c2ccccc2Cl)noc1-c1cnn(-c2cccc(F)c2)c1C(F)(F)F` [Example I-96, 3-(2-chlorophenyl)-5-(1-(3-fluorophenyl)-5-(trifluoro-methyl)-1H-pyrazol-4-yl)-N-methylisoxazole-4-carboxamide]: the pIC50 in assay [1], in assay [2] and in assay [3] was 6.00 to 7.00 throughout.

Take `COCCn1ncc(-c2onc(-c3c(F)cccc3Cl)c2C(=O)OC)c1C(F)(F)F` [Example I-102, methyl 3-(2-chloro-6-fluorophenyl)-5-(1-(2-methoxyethyl)-5-(trifluoromethyl)-1H-pyrazol-4-yl)isoxazole-4-carboxylate]: the pIC50 was 6.00 to 7.00 in assay [1], 5.00 to 6.00 in assay [2] and 5.00 to 6.00 in assay [3].

In the case of `COC(=O)c1c(-c2c(F)cccc2Cl)noc1-c1cnn(C2CCS(=O)(=O)C2)c1C(F)(F)F` (stereo not drawn) [Example I-103, methyl 3-(2-chloro-6-fluorophenyl)-5-(1-(3-hydrazinyltetrahy-drothiophene 1,1-dioxide)-5-(trifluoromethyl)-1H-pyrazol-4-yl)isoxazole-4-carboxylate], the pIC50 in assay [1], in assay [2] and in assay [3] was 6.00 to 7.00 each time.

In the case of `COC(=O)c1c(-c2cccc(F)c2)noc1-c1cnn(-c2cccc(F)c2)c1C(F)(F)F` [Example I-106, methyl 3-(3-fluorophenyl)-5-(1-(3-fluorophenyl)-5-(trifluoromethyl)-1H-pyrazol-4-yl)isoxazole-4-carboxylate], the pIC50 in assay [1], in assay [2] and in assay [3] was 5.00 to 6.00 in each case.

On to `COC(=O)c1c(-c2c(Cl)cccc2Cl)noc1-c1cnn(-c2cccc(F)c2)c1C(F)(F)F` [Example I-109, methyl 3-(2,6-dichlorophenyl)-5-(1-(3-fluorophenyl)-5-(trifluoromethyl)-1H-pyrazol-4-yl)isoxazole-4-carboxylate], for which the pIC50 in assay [1], in assay [2] and in assay [3] was over 8.00 each time.

In the case of `CNC(=O)c1c(-c2c(Cl)cccc2Cl)noc1-c1cnn(-c2cccc(F)c2)c1C(F)(F)F` [Example I-110, 3-(2,6-dichlorophenyl)-5-(1-(3-fluorophenyl)-5-(trifluoromethyl)-1H-pyrazol-4-yl)-N-methylisoxazole-4-carboxamide], the pIC50 in assay [1], in assay [2] and in assay [3] was 7.00 to 8.00 in each case.

With `COC(=O)c1c(-c2ccc(Cl)cc2Cl)noc1-c1cnn(-c2cccc(F)c2)c1C(F)(F)F` [Example I-111, methyl 3-(2,4-dichlorophenyl)-5-(1-(3-fluorophenyl)-5-(trifluoromethyl)-1H-pyrazol-4-yl)isoxazole-4-carboxylate], the pIC50 in assay [1] is 6.00 to 7.00; in assay [2] it was 5.00 to 6.00; in assay [3] it was 5.00 to 6.00.

With `CCOC(=O)c1c(-c2ccc(Cl)cc2Cl)noc1-c1cnn(-c2cccc(F)c2)c1C(F)(F)F` [Example I-112, ethyl 3-(2,4-dichlorophenyl)-5-(1-(3-fluorophenyl)-5-(trifluoromethyl)-1H-pyrazol-4-yl)isoxazole-4-carboxylate], the pIC50 in assay [1] was 6.00 to 7.00; in assay [2] it was 7.00 to 8.00; in assay [3], 6.00 to 7.00.

Take `COC(=O)c1c(-c2c(F)cccc2Cl)noc1-c1cnn(-c2cccc(Cl)c2)c1` [Example I-115, methyl 3-(2-chloro-6-fluorophenyl)-5-(1-(3-chlorophenyl)-1H-pyrazol-4-yl)isoxazole-4-carboxylate]: the pIC50 in assay [1], in assay [2] and in assay [3] was 5.00 to 6.00 throughout.

In the case of `Nc1c(-c2c(F)cccc2Cl)noc1-c1cnn(-c2cccc(F)c2)c1C(F)(F)F` [Example I-117, 3-(2-chloro-6-fluorophenyl)-5-(1-(3-fluorophenyl)-5-(trifluoromethyl)-1H-pyrazol-4-yl)isoxazol-4-amine], the pIC50 in assay [1], in assay [2] and in assay [3] was 6.00 to 7.00 in each case.
